The values below come from patent US10898595B2, “Core-satellite nanocomposites for MRI and photothermal therapy” (The Regents of the University of Michigan, priority 2013, dated 2021).

The assay relates to SUM-159 tumors. In words: In vivo PTT using IONP-IR820. Details: species or system mice. The conditions noted are these: 10 minutes. The procedure:
Tumor-bearing nude mice were randomly allocated into three groups (five mice in each group) when the solid SUM-159 tumors had grown to ˜80 mm3. Mice in each group were intravenously injected with IONP-IR820 (20 mg Fe/Kg mouse body weight), the same amount of IR820, the same amount of IONPs. 24 h post injection, tumors were irradiated with a diode laser (λ=885 nm) at a laser power of 0.5 W for 10 minutes. The highest tumor surface temperature was recorded by an infrared camera (FLIR Systems, i7, Boston, Mass.) before and after application of the laser.
Mice were humanely euthanized by CO2 inhalation 24 h following a single I.V. bolus dose of nanoparticles. The harvested tissue was formalin-fixed, embedded in paraffin and sectioned. Unstained slides were dewaxed using xylene and rehydrated using graded alcohol. Rehydrated slides were stained with Hematoxylin and eosin (H&E staining) for visualization of nucleic acids and cytoplasm.

On to `CC1(C)C(=CC=C2CCCC(C=CC3=[N+](CCCCS(=O)(=O)[O-])c4ccc5ccccc5c4C3(C)C)=C2Cl)N(CCCCS(=O)(=O)[O-])c2ccc3ccccc3c21.[Na+]` [IR820], for which the “Tumor tissue hemorrhaging right after laser irradiation” value (24 h post IV injection (20 mg Fe/Kg or same amount), 885 nm laser 0.5 W) is reported as “does not have any obvious hemorrhaging”. For the same compound, for the setting “24 h post IV injection, laser 0.5 W, infrared camera”, the “Average temperature increase at the tumor site” value came to 8.3±0.8 °C.
